Source: patent US6358885B1, “Substituted phenylheterocyclic herbicides” (Mississippi State University, priority 1992, dated 2002)

Legend:
[1] = tested on: bedstraw; assay: Test B preemergence/postemergence greenhouse plant response rating 0 to 10; format: in vivo, Galium aparine; details: for Plant response rating, Bedstraw: 0 to 10 scale
Method in brief: (§1)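 Test chemicals were sprayed onto freshly planted seed and, concurrently, onto young plants between the one and four leaf stage. After a twelve- to sixteen-day greenhouse period, each species was visually compared with untreated controls.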

[2] = tested on: chickweed; assay: as above; format: in vivo, Stellaria media; details: for Plant response rating, Chickweed: 0 to 10 scale
Method in brief: as §1

[3] = tested on: corn; assay: as above; format: in vivo, Zea mays; details: for Plant response rating, Corn: 0 to 10 scale
Method in brief: as §1

[4] = tested on: sugar beet; assay: as above; format: in vivo, Beta vulgaris; details: 0 to 10 scale
Method in brief: as §1

[5] = tested on: wild buckwheat; assay: as above; format: in vivo, Polygonum convolvulus; details: 0 to 10 scale
Method in brief: as §1

[6] = tested on: bedstraw; assay: Test C preemergence/postemergence greenhouse plant response rating 0 to 100; format: in vivo, Galium aparine; details: POSTEMERGENCE; for Plant response rating, Bedstraw: 0 to 100 scale
Description: (§2) The compounds evaluated in this test were formulated in a non-phytoxic solvent and applied to the soil surface before plant seedlings emerged (preemergence application), to water that covered the soil surface (flood application), and to plants that were in the one-to-four leaf stage (postemergence application). A sandy loam soil was used for the preemergence and postemergence tests, while a silt loam soil was used in the flood test. Water depth was approximately 2.5 cm for the flood test and was maintained at this level for the duration of the test. Plant species in the preemergence and postemergence tests consisted of barley (Hordeum vulgare), bedstraw (Galium aparine), blackgrass (Alopecurus myosuroides), chickweed (Stellaria media), corn (Zea mays), cotton (Gossypium hirsutum), crabgrass (Digitaria sanguinalis), downy brome (Bromus tectorum), giant foxtail (Setaria faberii), lambsquarters (Chenopodium album), morningglory (Ipomoea hederacea), pigweed ([…]), rape (Brassica napus), ryegrass (Lolium multiflorum), sorghum (Sorghum bicolor), soybean (Glycine max), speedwell (Veronica persica), sugar beet (Beta vulgaris), velvetleaf (Abutilon theophrasti), wheat (Triticum aestivum), wild buckwheat (Polygonum convolvulus), and wild oat (Avena fatua). All plant species were planted one day before application of the compound for the preemergence portion-of this test. Plantings of these species were adjusted to produce plants of appropriate size for the post-emergence portion of the test. […] All plant species were grown using normal greenhouse practices. Visual evaluations of injury expressed on treated plants, when compared to untreated controls, were recorded approximately fourteen to twenty one days after application of the test compound. […] A dash (-) response means no test result.

[7] = tested on: corn; assay: as above; format: in vivo, Zea mays; details: POSTEMERGENCE; for Plant response rating, Corn: 0 to 100 scale
Description: as §2

[8] = tested on: cotton; assay: as above; format: in vivo, Gossypium hirsutum; details: POSTEMERGENCE; for Plant response rating, Cotton: 0 to 100 scale
Description: as §2

[9] = tested on: downy brome; assay: as above; format: in vivo, Bromus tectorum; details: POSTEMERGENCE; for Plant response rating Downy Brome: 0 to 100 scale
Description: as §2

[10] = tested on: giant foxtail; assay: as above; format: in vivo, Setaria faberii; details: POSTEMERGENCE; for Plant response rating, Giant foxtail: 0 to 100 scale
Description: as §2

[11] = tested on: morningglory; assay: as above; format: in vivo, Ipomoea hederacea; details: POSTEMERGENCE; for Plant response rating, Morningglory: 0 to 100 scale
Description: as §2

[12] = tested on: sorghum; assay: as above; format: in vivo, Sorghum bicolor; details: POSTEMERGENCE; for Plant response rating, Sorghum: 0 to 100 scale
Description: as §2

[13] = tested on: velvetleaf; assay: as above; format: in vivo, Abutilon theophrasti; details: POSTEMERGENCE; for Plant response rating, Velvetleaf: 0 to 100 scale
Description: as §2

[14] = tested on: wheat; assay: as above; format: in vivo, Triticum aestivum; details: POSTEMERGENCE; for Plant response rating, Wheat: 0 to 100 scale
Description: as §2

[15] = tested on: wild oat; assay: as above; format: in vivo, Avena fatua; details: POSTEMERGENCE; for Plant response rating, Wild oat: 0 to 100 scale
Description: as §2

[16] = tested on: duck salad; assay: Test C flood test plant response rating 0 to 100; format: in vivo, Heteranthera limosa; details: for Plant response rating Duck salad: flood test species listed under POSTEMERGENCE, 0 to 100 scale
Description: as §2

[17] = tested on: barnyardgrass; assay: Test C flood test plant response rating 0 to 100; format: in vivo, Echinochloa crus-galli; details: for Plant response rating (0 to 100), Barnyardgrass: under POSTEMERGENCE head (flood test species); for Plant response rating, Barnyardgrass: flood test species listed under POSTEMERGENCE, 0 to 100 scale
Description: as §2

With `CC(C)COc1cc(-c2nn3c(c2Cl)CCCC3)c(F)cc1Cl` [Compound 30] the “Plant response rating (0 to 10 scale), Bedstraw” value ([1]; POSTEMERGENCE, Rate 50 g/ha) was 8, the “Plant response rating, Bedstraw” value ([1]; POSTEMERGENCE, Rate 200 g/ha) was 10 and the “Plant response rating, Bedstraw” value ([1]; PREEMERGENCE, Rate 50 g/ha) was 0. For the same molecule, the “Plant response rating, Bedstraw” value ([1]; Rate 200 g/ha, PREEMERGENCE) was 9, the “Plant response rating (0 to 10 scale), Chickweed” value ([2]; POSTEMERGENCE, Rate 50 g/ha) was 5 and the “Plant response rating, Chickweed” value ([2]; POSTEMERGENCE, Rate 200 g/ha) was 8. For the same molecule, the “Plant response rating, Chickweed” value ([2]; PREEMERGENCE, Rate 50 g/ha) was 0, the “Plant response rating, Chickweed” value ([2]; Rate 200 g/ha, PREEMERGENCE) was 3 and the “Plant response rating (0 to 10 scale), Corn” value ([3]; POSTEMERGENCE, Rate 50 g/ha) was 4. For the same molecule, the “Plant response rating, Corn” value ([3]; POSTEMERGENCE, Rate 200 g/ha) was 4, the “Plant response rating, Corn” value ([3]; PREEMERGENCE, Rate 50 g/ha) was 0 and the “Plant response rating, Corn” value ([3]; Rate 200 g/ha, PREEMERGENCE) was 1. The “Plant response rating, Sugar beet” value ([4]; POSTEMERGENCE, Rate 50 g/ha) was 10, the “Plant response rating, Sugar beet” value ([4]; PREEMERGENCE, Rate 50 g/ha) was 5 and the “Plant response rating, Sugar beet” value ([4]; Rate 200 g/ha, POSTEMERGENCE) was 10. The “Plant response rating, Sugar beet” value ([4]; Rate 200 g/ha, PREEMERGENCE) was 9, the “Plant response rating, Wild buckwheat” value ([5]; POSTEMERGENCE, Rate 50 g/ha) was 10 and the “Plant response rating, Wild buckwheat” value ([5]; PREEMERGENCE, Rate 50 g/ha) was 0. For the same molecule, the “Plant response rating, Wild buckwheat” value ([5]; Rate 200 g/ha, POSTEMERGENCE) was 10, the “Plant response rating, Wild buckwheat” value ([5]; Rate 200 g/ha, PREEMERGENCE) was 6 and the “Plant response rating, Bedstraw” value ([6]; 62 g/ha) was 100. The “Plant response rating, Bedstraw” value ([6]; 250 g/ha) was 100, the “Plant response rating (0 to 100), Bedstraw” value ([6]; Rate 4 g/ha) was 50 and the “Plant response rating (0 to 100), Bedstraw” value ([6]; Rate 16 g/ha) was 70. The “Plant response rating, Corn” value ([7]; 62 g/ha) was 30, the “Plant response rating, Corn” value ([7]; 250 g/ha) was 40 and the “Plant response rating (0 to 100), Corn” value ([7]; Rate 4 g/ha) was 20. The “Plant response rating (0 to 100), Corn” value ([7]; Rate 16 g/ha) was 20, the “Plant response rating, Cotton” value ([8]; 62 g/ha) was 100 and the “Plant response rating, Cotton” value ([8]; 250 g/ha) was 100. For the same molecule, the “Plant response rating (0 to 100), Cotton” value ([8]; Rate 4 g/ha) was 100, the “Plant response rating (0 to 100), Cotton” value ([8]; Rate 16 g/ha) was 100 and the “Plant response rating Downy Brome” value ([9]; 62 g/ha) was 60. The “Plant response rating Downy Brome” value ([9]; 250 g/ha) was 90, the “Plant response rating (0 to 100), Downy Brome” value ([9]; Rate 4 g/ha) was 20 and the “Plant response rating (0 to 100), Downy Brome” value ([9]; Rate 16 g/ha) was 40. The “Plant response rating, Giant foxtail” value ([10]; 62 g/ha) was 50, the “Plant response rating, Giant foxtail” value ([10]; 250 g/ha) was 80 and the “Plant response rating (0 to 100), Giant foxtail” value ([10]; Rate 4 g/ha) was 0. The “Plant response rating (0 to 100), Giant foxtail” value ([10]; Rate 16 g/ha) was 20, the “Plant response rating, Morningglory” value ([11]; 62 g/ha) was 80 and the “Plant response rating, Morningglory” value ([11]; 250 g/ha) was 90. The “Plant response rating (0 to 100), Morningglory” value ([11]; Rate 4 g/ha) was 30, the “Plant response rating (0 to 100), Morningglory” value ([11]; Rate 16 g/ha) was 50 and the “Plant response rating, Sorghum” value ([12]; 62 g/ha) was 20. For the same molecule, the “Plant response rating, Sorghum” value ([12]; 250 g/ha) was 40, the “Plant response rating (0 to 100), Sorghum” value ([12]; Rate 4 g/ha) was 0 and the “Plant response rating (0 to 100), Sorghum” value ([12]; Rate 16 g/ha) was 0. The “Plant response rating, Velvetleaf” value ([13]; 62 g/ha) was 100, the “Plant response rating, Velvetleaf” value ([13]; 250 g/ha) was 100 and the “Plant response rating (0 to 100), Velvetleaf” value ([13]; Rate 4 g/ha) was 0. The “Plant response rating (0 to 100), Velvetleaf” value ([13]; Rate 16 g/ha) was 60, the “Plant response rating, Wheat” value ([14]; 62 g/ha) was 60 and the “Plant response rating, Wheat” value ([14]; 250 g/ha) was 90. The “Plant response rating (0 to 100), Wheat” value ([14]; Rate 4 g/ha) was 20, the “Plant response rating (0 to 100), Wheat” value ([14]; Rate 16 g/ha) was 30 and the “Plant response rating, Wild oat” value ([15]; 62 g/ha) was 60. For the same molecule, the “Plant response rating, Wild oat” value ([15]; 250 g/ha) was 80, the “Plant response rating (0 to 100), Wild oat” value ([15]; Rate 4 g/ha) was 20 and the “Plant response rating (0 to 100), Wild oat” value ([15]; Rate 16 g/ha) was 40. The “Plant response rating (0 to 100), Duck salad” value ([16]; POSTEMERGENCE section, flood test, Rate 4 g/ha) was 0, the “Plant response rating (0 to 100), Duck salad” value ([16]; Rate 16 g/ha, under POSTEMERGENCE head (flood test species)) was 30 and the “Plant response rating Duck salad” value ([16]; 62 g/ha) was 40. For the same molecule, the “Plant response rating Duck salad” value ([16]; 250 g/ha) was 60, the “Plant response rating (0 to 100), Barnyardgrass” value ([17]; Rate 4 g/ha) was 85 and the “Plant response rating (0 to 100), Barnyardgrass” value ([17]; Rate 16 g/ha) was 95. The “Plant response rating, Barnyardgrass” value ([17]; 62 g/ha) was 100 and the “Plant response rating, Barnyardgrass” value ([17]; 250 g/ha) was 100.
